# System: participants with SSc-RP
# Experiment: Frequency of weekly symptomatic RP attacks (patient diary), Phase 2a Part A
# Type: in vivo, human
# Conditions: ITT Part A
# Source text: Percent change from baseline evaluation for frequency of weekly RP attacks were or will be used as the primary efficacy variable. The sponsor-developed participant-informed diary will be used to record data. Frequency of weekly RP attacks is defined as the total number of RP attacks divided by the number of days with available diary data within the last 7 days of each dosing period then multiplied by 7. Total number of RP attacks during the last 7 days of screening period divided by the number of days with available data then multiplied by 7 will be used as baseline for the analysis of all periods. The variable will be calculated as follows: […]
# Percent change from baseline evaluation for frequency of weekly RP attacks was and will be the primary efficacy endpoint. Frequency of weekly RP attacks is defined as the total number of RP attacks divided by the number of days with available diary data within the last 7 days of each dosing period then multiplied by 7. Total number of RP attacks during the last 7 days of screening period divided by the number of days with available data then multiplied by 7 will be used as baseline for the analysis of all periods.
# [1] = Cilnidipine 10 mg, n=1, by Baseline RCS, first block (RCS <5.0)
# [2] = Cilnidipine 20 mg, n=2, Excluding Outliers
# [3] = Cilnidipine 20 mg, n=2, by Baseline RCS, first block (RCS <5.0)
# [4] = Pooled Cilnidipine 10 mg and Cilnidipine 10 mg + Tadalafil 5 mg, n=1, by Baseline RCS, second block (RCS >5.0)
# [5] = Pooled Cilnidipine 10 mg and Cilnidipine 10 mg + Tadalafil 5 mg, n=2, by Baseline RCS, first block (RCS <5.0)
# [6] = Pooled Cilnidipine 10 mg and Cilnidipine 10 mg + Tadalafil 5 mg, n=3
# [7] = Pooled Cilnidipine 10 mg and Cilnidipine 10 mg + Tadalafil 5 mg, n=3, Excluding Outliers
# [8] = Pooled Cilnidipine 10 mg and Cilnidipine 10 mg + Tadalafil 5 mg, n=1, excluding outliers, second Baseline RCS subgroup, last 7 days of dosing
# [9] = Pooled Cilnidipine 10 mg and Cilnidipine 10 mg + Tadalafil 5 mg, n=2, excluding outliers, first Baseline RCS subgroup, last 7 days of dosing
# [10] = Pooled Cilnidipine 20 mg and Cilnidipine 20 mg + Tadalafil 5 mg, n=1, by Baseline RCS, second block (RCS >5.0)
# [11] = Pooled Cilnidipine 20 mg and Cilnidipine 20 mg + Tadalafil 5 mg, n=3, by Baseline RCS, first block (RCS <5.0)
# [12] = Pooled Cilnidipine 20 mg and Cilnidipine 20 mg + Tadalafil 5 mg, n=4
# [13] = Pooled Cilnidipine 20 mg and Cilnidipine 20 mg + Tadalafil 5 mg, n=4, Excluding Outliers
# [14] = Pooled Cilnidipine 20 mg and Cilnidipine 20 mg + Tadalafil 5 mg, n=1, excluding outliers, second Baseline RCS subgroup, last 7 days of dosing
# [15] = Pooled Cilnidipine 20 mg and Cilnidipine 20 mg + Tadalafil 5 mg, n=3, excluding outliers, first Baseline RCS subgroup, last 7 days of dosing
# [16] = Pooled Cilnidipine (10 or 20 mg), n=3
# [17] = Pooled Cilnidipine (10 or 20 mg), n=3, Excluding Outliers
# [18] = Pooled Cilnidipine (10 or 20 mg), n=3, by Baseline RCS, first block (RCS <5.0)
# [19] = Pooled Cilnidipine arms, n=3, excluding outliers, first Baseline RCS subgroup, last 7 days of dosing
# [20] = cilnidipine 10 mg daily, n=1, excluding outliers, first Baseline RCS subgroup, last 7 days of dosing
# [21] = cilnidipine 20 mg daily, n=2, excluding outliers, first Baseline RCS subgroup, last 7 days of dosing
smiles,measurement,setting,value
COCCOC(=O)C1=C(C)NC(C)=C(C(=O)OC/C=C/c2ccccc2)C1c1cccc([N+](=O)[O-])c1 (centres unmarked) [Cilnidipine],"Weekly Symptomatic RP Attacks Change from Baseline, Mean",[1],−7.00
same,"Weekly Symptomatic RP Attacks Change from Baseline, Median",[1],−7.00
same,"Weekly Symptomatic RP Attacks Percent Change from Baseline, Mean",[1],−33.33%
same,"Weekly Symptomatic RP Attacks Percent Change from Baseline, Median",[1],−33.33%
same,"Weekly Symptomatic RP Attacks, Mean",[1],14.00
same,"Weekly Symptomatic RP Attacks, Median",[1],14.00
same,"Weekly Symptomatic RP Attacks Change from Baseline, Mean","Cilnidipine 20 mg, n=2",−4.50
same,"Weekly Symptomatic RP Attacks Change from Baseline, Median","Cilnidipine 20 mg, n=2",−4.50
same,"Weekly Symptomatic RP Attacks Percent Change from Baseline, Mean","Cilnidipine 20 mg, n=2",−33.73%
same,"Weekly Symptomatic RP Attacks Percent Change from Baseline, Median","Cilnidipine 20 mg, n=2",−33.73%
same,"Weekly Symptomatic RP Attacks, Mean","Cilnidipine 20 mg, n=2",8.00
same,"Weekly Symptomatic RP Attacks, Median","Cilnidipine 20 mg, n=2",8.00
same,"Weekly Symptomatic RP Attacks Change from Baseline, Mean",[2],−4.50
same,"Weekly Symptomatic RP Attacks Change from Baseline, Median",[2],−4.50
same,"Weekly Symptomatic RP Attacks Percent Change from Baseline, Median",[2],−33.73%
same,"Weekly Symptomatic RP Attacks, Mean",[2],8.00
same,"Weekly Symptomatic RP Attacks, Median",[2],8.00
same,"Weekly Symptomatic RP Attacks Change from Baseline, Mean",[3],−4.50
same,"Weekly Symptomatic RP Attacks Change from Baseline, Median",[3],−4.50
same,"Weekly Symptomatic RP Attacks Percent Change from Baseline, Mean",[3],−33.73%
same,"Weekly Symptomatic RP Attacks Percent Change from Baseline, Median",[3],−33.73%
same,"Weekly Symptomatic RP Attacks, Mean",[3],8.00
same,"Weekly Symptomatic RP Attacks, Median",[3],8.00
same,"Weekly Symptomatic RP Attacks Change from Baseline, Mean",[4],−3.00
same,"Weekly Symptomatic RP Attacks Change from Baseline, Median",[4],−3.00
same,"Weekly Symptomatic RP Attacks Percent Change from Baseline, Mean",[4],−42.86%
same,"Weekly Symptomatic RP Attacks Percent Change from Baseline, Median",[4],−42.86%
same,"Weekly Symptomatic RP Attacks, Mean",[4],4.00
same,"Weekly Symptomatic RP Attacks, Median",[4],4.00
same,"Weekly Symptomatic RP Attacks Change from Baseline, Mean",[5],−5.50
same,"Weekly Symptomatic RP Attacks Change from Baseline, Median",[5],−5.50
same,"Weekly Symptomatic RP Attacks Percent Change from Baseline, Mean",[5],−38.89%
same,"Weekly Symptomatic RP Attacks Percent Change from Baseline, Median",[5],−38.89%
same,"Weekly Symptomatic RP Attacks, Mean",[5],9.50
same,"Weekly Symptomatic RP Attacks, Median",[5],9.50
same,"Weekly Symptomatic RP Attacks Change from Baseline, Mean",[6],−4.67
same,"Weekly Symptomatic RP Attacks Change from Baseline, Median",[6],−4.00
same,"Weekly Symptomatic RP Attacks Percent Change from Baseline, Mean",[6],−40.21%
same,"Weekly Symptomatic RP Attacks Percent Change from Baseline, Median",[6],−42.86%
same,"Weekly Symptomatic RP Attacks, Mean",[6],7.67
same,"Weekly Symptomatic RP Attacks, Median",[6],5.00
same,"Weekly Symptomatic RP Attacks Change from Baseline, Mean",[7],−4.67
same,"Weekly Symptomatic RP Attacks Change from Baseline, Median",[7],−4.00
same,"Weekly Symptomatic RP Attacks Percent Change from Baseline, Mean",[7],−40.21%
same,"Weekly Symptomatic RP Attacks Percent Change from Baseline, Median",[7],−42.86%
same,"Weekly Symptomatic RP Attacks, Mean",[7],7.67
same,"Weekly Symptomatic RP Attacks, Median",[7],5.00
same,"Weekly Symptomatic RP Attacks Change from Baseline, Mean",[8],−3.00
same,"Weekly Symptomatic RP Attacks Change from Baseline, Median",[8],−3.00
same,"Weekly Symptomatic RP Attacks Percent Change from Baseline, Mean",[8],−42.86%
same,"Weekly Symptomatic RP Attacks Percent Change from Baseline, Median",[8],−42.86%
same,"Weekly Symptomatic RP Attacks, Mean",[8],4.00
same,"Weekly Symptomatic RP Attacks, Median",[8],4.00
same,"Weekly Symptomatic RP Attacks Change from Baseline, Mean",[9],−5.50
same,"Weekly Symptomatic RP Attacks Change from Baseline, Median",[9],−5.50
same,"Weekly Symptomatic RP Attacks Percent Change from Baseline, Mean",[9],−38.89%
same,"Weekly Symptomatic RP Attacks Percent Change from Baseline, Median",[9],−38.89%
same,"Weekly Symptomatic RP Attacks, Mean",[9],9.50
same,"Weekly Symptomatic RP Attacks, Median",[9],9.50
same,"Weekly Symptomatic RP Attacks Change from Baseline, Mean",[10],−0.50
same,"Weekly Symptomatic RP Attacks Change from Baseline, Median",[10],−0.50
same,"Weekly Symptomatic RP Attacks Percent Change from Baseline, Mean",[10],−4.76%
same,"Weekly Symptomatic RP Attacks Percent Change from Baseline, Median",[10],−4.76%
same,"Weekly Symptomatic RP Attacks, Mean",[10],10.00
same,"Weekly Symptomatic RP Attacks, Median",[10],10.00
same,"Weekly Symptomatic RP Attacks Change from Baseline, Mean",[11],−4.67
same,"Weekly Symptomatic RP Attacks Change from Baseline, Median",[11],−5.00
same,"Weekly Symptomatic RP Attacks Percent Change from Baseline, Mean",[11],−31.75%
same,"Weekly Symptomatic RP Attacks Percent Change from Baseline, Median",[11],−28.57%
same,"Weekly Symptomatic RP Attacks, Mean",[11],9.67
same,"Weekly Symptomatic RP Attacks, Median",[11],11.00
same,"Weekly Symptomatic RP Attacks Change from Baseline, Mean",[12],−3.63
same,"Weekly Symptomatic RP Attacks Change from Baseline, Median",[12],−3.50
same,"Weekly Symptomatic RP Attacks Percent Change from Baseline, Mean",[12],−25.00%
same,"Weekly Symptomatic RP Attacks Percent Change from Baseline, Median",[12],−28.17%
same,"Weekly Symptomatic RP Attacks, Mean",[12],9.75
same,"Weekly Symptomatic RP Attacks, Median",[12],10.50
same,"Weekly Symptomatic RP Attacks Change from Baseline, Mean",[13],−3.63
same,"Weekly Symptomatic RP Attacks Change from Baseline, Median",[13],−3.50
same,"Weekly Symptomatic RP Attacks Percent Change from Baseline, Mean",[13],−25.00%
same,"Weekly Symptomatic RP Attacks Percent Change from Baseline, Median",[13],−28.17%
same,"Weekly Symptomatic RP Attacks, Mean",[13],9.75
same,"Weekly Symptomatic RP Attacks, Median",[13],10.50
same,"Weekly Symptomatic RP Attacks Change from Baseline, Mean",[14],−0.50
same,"Weekly Symptomatic RP Attacks Change from Baseline, Median",[14],−0.50
same,"Weekly Symptomatic RP Attacks Percent Change from Baseline, Mean",[14],−4.76%
same,"Weekly Symptomatic RP Attacks Percent Change from Baseline, Median",[14],−4.76%
same,"Weekly Symptomatic RP Attacks, Mean",[14],10.00
same,"Weekly Symptomatic RP Attacks, Median",[14],10.00
same,"Weekly Symptomatic RP Attacks Change from Baseline, Mean",[15],−4.67
same,"Weekly Symptomatic RP Attacks Change from Baseline, Median",[15],−5.00
same,"Weekly Symptomatic RP Attacks Percent Change from Baseline, Mean",[15],−31.75%
same,"Weekly Symptomatic RP Attacks Percent Change from Baseline, Median",[15],−28.57%
same,"Weekly Symptomatic RP Attacks, Mean",[15],9.67
same,"Weekly Symptomatic RP Attacks, Median",[15],11.00
same,"Weekly Symptomatic RP Attacks Change from Baseline, Mean",[16],−5.33
same,"Weekly Symptomatic RP Attacks Change from Baseline, Median",[16],−7.00
same,"Weekly Symptomatic RP Attacks Percent Change from Baseline, Mean",[16],−33.60%
same,"Weekly Symptomatic RP Attacks Percent Change from Baseline, Median",[16],−33.33%
same,"Weekly Symptomatic RP Attacks, Mean",[16],10.00
same,"Weekly Symptomatic RP Attacks, Median",[16],11.00
same,"Weekly Symptomatic RP Attacks Change from Baseline, Mean",[17],−5.33
same,"Weekly Symptomatic RP Attacks Change from Baseline, Median",[17],−7.00
same,"Weekly Symptomatic RP Attacks Percent Change from Baseline, Mean",[17],−33.60%
same,"Weekly Symptomatic RP Attacks Percent Change from Baseline, Median",[17],−33.33%
same,"Weekly Symptomatic RP Attacks, Mean",[17],10.00
same,"Weekly Symptomatic RP Attacks, Median",[17],11.00
same,"Weekly Symptomatic RP Attacks Change from Baseline, Mean",[18],−5.33
same,"Weekly Symptomatic RP Attacks Change from Baseline, Median",[18],−7.00
same,"Weekly Symptomatic RP Attacks Percent Change from Baseline, Mean",[18],−33.60%
same,"Weekly Symptomatic RP Attacks Percent Change from Baseline, Median",[18],−33.33%
same,"Weekly Symptomatic RP Attacks, Mean",[18],10.00
same,"Weekly Symptomatic RP Attacks, Median",[18],11.00
same,"Weekly Symptomatic RP Attacks Change from Baseline, Mean",[19],−5.33
same,"Weekly Symptomatic RP Attacks Change from Baseline, Median",[19],−7.00
same,"Weekly Symptomatic RP Attacks Percent Change from Baseline, Mean",[19],−33.60%
same,"Weekly Symptomatic RP Attacks Percent Change from Baseline, Median",[19],−33.33%
same,"Weekly Symptomatic RP Attacks, Mean",[19],10.00
same,"Weekly Symptomatic RP Attacks, Median",[19],11.00
same,"Weekly Symptomatic RP Attacks Change from Baseline, Mean",[20],−7.00
same,"Weekly Symptomatic RP Attacks Change from Baseline, Median",[20],−7.00
same,"Weekly Symptomatic RP Attacks Percent Change from Baseline, Mean",[20],−33.33%
same,"Weekly Symptomatic RP Attacks Percent Change from Baseline, Median",[20],−33.33%
same,"Weekly Symptomatic RP Attacks, Mean",[20],14.00
same,"Weekly Symptomatic RP Attacks, Median",[20],14.00
same,"Weekly Symptomatic RP Attacks Change from Baseline, Mean",[21],−4.50
same,"Weekly Symptomatic RP Attacks Change from Baseline, Median",[21],−4.50
same,"Weekly Symptomatic RP Attacks Percent Change from Baseline, Mean",[21],−33.73%
same,"Weekly Symptomatic RP Attacks Percent Change from Baseline, Median",[21],−33.73%
same,"Weekly Symptomatic RP Attacks, Mean",[21],8.00
same,"Weekly Symptomatic RP Attacks, Median",[21],8.00
